Read-outs that look alike come from different tables or passages of the source.
Assays:
ATF3, ATF4, NOXA = assay: Immunoblot of ER stress markers, NOXA, ubiquitin and histone H2A in JEKO-1 cells; assay type: cell-based; details: for expression level of ATF3, ATF4 and NOXA: 8 hrs
[1] = system: p97 mutants (p97ΔN, p97ΔD2); assay: Avidin bead pull-down of p97 mutants with immobilized B-NFC; assay type: binding; details: p97ΔN or p97ΔD2, avidin beads
293T cells = assay: Whole genome array gene expression in 293T cells; assay type: cell-based, human; details: 10 μM, 10 h
Method: To further confirm that both EerI and 5-NA can influence p97 function in cells, the gene expression pattern of EerI-treated cells is compared to that of 5-NA-treated cells using whole genome array hybridization. […] These studies are performed in 293T cells because they are highly transfectable, making them well suited for genetic manipulation by siRNA. Cells were treated with EerI, CBU-028, or 5-NA each at 10 μM in duplicates for 10 h. Total RNA was extracted using TRIzol reagent (Invitrogen, Carlsbad, Calif.), and subsequently purified using an RNeasy MinElute Cleanup kit (QIAGEN, Valencia, Calif.). For array hybridization, RNA samples were processed and analyzed by The National Institute of Diabetes and Digestive and Kidney Diseases (NIDDK) Microarray Core Facility. The Affymetrix gene expression analysis array for the human HG-U133A—2—0 was used (Affymetrix). The microarray signals were analyzed using the Affymetrix RMA algorithm. […] To determine specific pathways, gene pathway analysis were conducted using software from Genego, Inc., using the statistical significant ANOVA gene list (p<0.05, fold change >1.5) represented on the chip. Microarray data is MIAME compliant and that the raw data has been deposited in the Gene Expression Omnibus (GEO) database (accession no. GSE23849).

JEKO-1 cells [2] = system: JEKO-1 cells
[3] = biological target: T1, recombinant wild type p97 (Homo sapiens, UniProt P55072); assay: Surface plasmon resonance binding to recombinant p97; details: SPR, 25° C., recombinant p97 purified from E. coli; read-out: estimated Kd
T1 construct: made in house; host or cells: E. coli
T1 sequence (P55072 whole entry): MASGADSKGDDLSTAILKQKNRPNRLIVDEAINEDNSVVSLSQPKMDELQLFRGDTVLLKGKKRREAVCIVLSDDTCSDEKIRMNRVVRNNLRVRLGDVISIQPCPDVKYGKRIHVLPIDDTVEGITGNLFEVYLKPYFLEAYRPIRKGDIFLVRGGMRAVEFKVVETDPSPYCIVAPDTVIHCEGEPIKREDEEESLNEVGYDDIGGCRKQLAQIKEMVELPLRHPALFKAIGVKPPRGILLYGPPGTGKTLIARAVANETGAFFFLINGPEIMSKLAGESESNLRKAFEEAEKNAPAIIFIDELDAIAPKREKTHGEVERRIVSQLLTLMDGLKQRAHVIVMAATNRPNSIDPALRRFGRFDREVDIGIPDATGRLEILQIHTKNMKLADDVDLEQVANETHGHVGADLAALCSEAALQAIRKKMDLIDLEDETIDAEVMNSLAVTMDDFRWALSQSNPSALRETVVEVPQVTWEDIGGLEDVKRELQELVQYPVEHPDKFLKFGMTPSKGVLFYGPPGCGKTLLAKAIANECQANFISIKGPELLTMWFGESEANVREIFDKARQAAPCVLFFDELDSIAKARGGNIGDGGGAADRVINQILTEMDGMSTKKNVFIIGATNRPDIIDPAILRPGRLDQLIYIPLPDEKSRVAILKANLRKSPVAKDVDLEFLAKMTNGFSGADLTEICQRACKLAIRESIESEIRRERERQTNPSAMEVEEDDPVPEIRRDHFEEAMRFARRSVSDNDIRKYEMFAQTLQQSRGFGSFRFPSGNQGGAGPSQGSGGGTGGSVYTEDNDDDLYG
Method: The strength of EerI binding to recombinant p97 purified from E. coli was tested using surface plasma resonance (SPR). Surface plasmon resonance interaction experiments were carried out at 25° C. on a Biacore T100 system (GE healthcare). […] Briefly, the carboxymethyl group of dextran was activated with N-ethyl-N′-(3-dimethylaminopropyl)carbodiimide (EDC) and N-hydroxysuccinimide (NHS). Then, p97 in a 10 mM sodium acetate (pH 4.5) buffer was injected at a flow rate of 10 μl/min with 2 min contact time and immobilized at a level of ˜8,000 RU. Any remaining reactive sites in the flow cell were blocked by ethanolamine. The drug association and dissociation were monitored at a flow rate of […] with the analyte concentration ranging from 3.125 μM to 50 μM in a buffer containing 10 mM HEPES (pH 7.4), 150 mM NaCl, 0.005% v/v Surfactant P20. Regeneration of the chip was achieved by extended washing with the analyte buffer. SPR signal was normalized using a reference flow cell containing no p97. […] The Rmax was then calculated, and the binding relative to the Rmax from three independent experiments was averaged. […]
The affinity of CBU-028, EERI, and compound 5138380 to purified p97 is measured by surface plasmon resonance (SPR). […] Association and dissociation of the compounds are monitored at a flow rate of 20 μL/min at concentrations ranging from 1.6 μM to 100 μM. […]

p97 ATPase = p97 ATPase (Homo sapiens, UniProt P55072); assay: In vitro ATPase activity of p97; assay type: biochemical; details: data not shown
Chain of p97 ATPase (P55072 whole entry): as above
Method: To understand how EerI binding might affect p97 function, in vitro ATPase activity of p97 in the presence of EerI was measured. No effect of EerI on the p97 ATPase activity was found (data not shown).

membrane associated p97 = biological target: T2, membrane associated p97 (Homo sapiens, UniProt P55072); assay: Membrane/cytosol fractionation and p97 immunoblot in 293T cells; assay type: cell-based; details: 10 μM, 6 hr, membrane and cytosol fractions
T2 construct: endogenous in cells; host or cells: 293T cells
T2 sequence (P55072 2-806 limits assumed): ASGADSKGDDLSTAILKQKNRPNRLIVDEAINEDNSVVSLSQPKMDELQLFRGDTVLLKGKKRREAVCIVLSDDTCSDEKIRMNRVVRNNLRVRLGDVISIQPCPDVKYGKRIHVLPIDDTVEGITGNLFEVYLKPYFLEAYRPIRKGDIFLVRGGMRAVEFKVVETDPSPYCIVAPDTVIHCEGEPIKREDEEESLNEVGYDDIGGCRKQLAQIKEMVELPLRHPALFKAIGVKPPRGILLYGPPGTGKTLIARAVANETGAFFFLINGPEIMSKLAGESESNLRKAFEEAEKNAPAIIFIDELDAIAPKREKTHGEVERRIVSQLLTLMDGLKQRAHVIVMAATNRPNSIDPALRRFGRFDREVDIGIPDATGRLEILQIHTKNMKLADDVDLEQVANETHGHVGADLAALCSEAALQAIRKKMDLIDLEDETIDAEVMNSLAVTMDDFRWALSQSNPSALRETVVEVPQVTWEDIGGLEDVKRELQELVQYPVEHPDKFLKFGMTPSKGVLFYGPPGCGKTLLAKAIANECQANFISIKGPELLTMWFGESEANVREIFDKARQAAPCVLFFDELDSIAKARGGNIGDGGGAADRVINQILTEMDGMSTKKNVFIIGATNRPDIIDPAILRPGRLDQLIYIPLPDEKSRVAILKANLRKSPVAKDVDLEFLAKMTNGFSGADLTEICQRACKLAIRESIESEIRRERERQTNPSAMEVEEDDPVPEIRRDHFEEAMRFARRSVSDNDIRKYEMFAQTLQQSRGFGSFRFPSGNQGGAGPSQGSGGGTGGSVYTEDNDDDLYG
Method: Cells were fractionated into membrane and cytosol fractions. Proteins extracted from these fractions were analyzed by immunoblotting with antibodies to p97, E1, and Sec61β, and ER-resident protein as shown in FIG. 2 e.

p97 [4] = biological target: T3, p97 (Homo sapiens, UniProt P55072); assay: Limited trypsin digestion of purified p97; details: purified p97 pre-incubated with compound
T3 sequence (P55072 whole entry): as the sequence (P55072 whole entry) above
Method: Sensitivity of p97 to limited trypsin digestion in the presence and absence of EerI was tested to determine whether binding of EerI to p97 could alter p97 conformation. The purified p97 protein (1.5 μg) was incubated at in a buffer containing 200 ng trypsin in 50 μl volume. Samples were taken out at different time points and mixed with the Laemmli buffer before SDS-PAGE and silver staining analyses.

TCRα-YFP = assay: Stabilization of ERAD substrate TCRα-YFP in 293T cells; assay type: cell-based; details: 293T cells stably expressing TCRα-YFP, 10 μM (10 mM in method), 10 h
Method: 293T cells stably expressing TCRα-YFP are treated with the indicated compounds ([…]) or as a control with DMSO for 10 h. Cells are lysed in RIPA buffer (50 mM Tris, pH 7.5, 1% NP40, 0.1% SDS, 0.5% sodium deoxycholate, 150 mM sodium chloride, 2 mM EDTA and a protease inhibitor cocktail). TCRα-YFP is immunoprecipitated from the cell extract using an anti-green fluorescent protein (GFP) antibody. The precipitated material is analyzed by SDS-PAGE and immunoblotting with antibodies against uUb and GFP. The whole cell extracts are also analyzed by SDS-PAGE and immunoblotting with antibodies against p. 97.

GFPμ = assay: Stabilization of soluble p97 substrate GFPμ in 293T cells; assay type: cell-based; details: 10 μM
Method: The experiments are performed as described above for TCRα-YFP, except that 293 T cells stably expressing GFP are used.

[5] = system: JEKO-1 cells stably transfected with shRNAs to luciferase or NOXA; assay: Effect of NOXA shRNA on cytotoxicity in JEKO-1 cells (MTT); assay type: cell-based; details: JEKO-1 shLuc vs shNoxa, 24 hours
Method: The effect of NOXA on cytotoxicity of CBU-028, EERI, or bortezomib is determined. FIG. 4 presents graphs comparing CBU-028, EERI, and bortezomib with respect to percent cell viability as a function of concentration, measured using JEKO-1 cells stably transfected with shRNAs to luciferase (shLuc, control, ▪) or NOXA (shNoxa, ◯, sequence: [NT]) after treatment with the compound for 24 hrs, with viability determined with MTT as described above and normalized to the untreated control.

[6] = system: primary chronic lymphocytic leukemia (CLL) cells or normal peripheral blood mononuclear cells (PBMC); assay: Cytotoxic activity against primary cells (MTT); assay type: cell-based; details: 5×10e6 cells/ml, 48 hrs
Method: The cytotoxic activity of CBU-028 or EERI against primary cells is determined as a function of concentration. Cell viability of primary chronic lymphocytic leukemia (CLL) cells or normal peripheral blood mononuclear cells (PBMC) at a concentration of 5×10e6 cells/ml is determined after treatment with CBU-028 or EERI for 48 hrs in triplicates. Viability is determined using the MTT assay, as described previously, with data normalized to the untreated control.

CLL cells = assay: Synergy of CBU-028 with bortezomib against CLL cells (MTT); assay type: cell-based; details: fixed molar relation 1:2000 (BZM:CBU-028), 48 hours
Method: FIG. 6. […] To test for synergy between BZM and CBU-028, CLL cells were incubated in-vitro to increasing concentrations of each compound individually as well as to a combination of both drugs. The combination was tested at a fixed molar relation of 1:2000, e.g. 4 nM BZM was combined with 8 uM CBU-028. 5×10^6 cells/mL were incubated for 48 hours and cell viability was measured with MTT. Synergy is found where the effect of the combination of the two compounds exceeds the additive effect of each compound separately. The left graph shown the result of a representative experiment (CLL—4235) across all concentrations tested. The graph on the right summarizes the data for 7 individual CLL patients.

JEKO-1 cells [7] = assay: cells; details: Homo sapiens, JeKo-1, 48 h, JEKO-1 cells, incubated 2 days, MTT, four parameter logistic fit
p97 [8] = biological target: T3, p97; assay: Avidin bead pull-down of p97 with immobilized B-NFC; assay type: binding; details: monomeric avidin beads, biotin beads as negative control
heat shock protein Hsp70 = assay: Avidin bead pull-down of Hsp70 with immobilized B-NFC; assay type: binding; details: avidin beads
[9] = biological target: N-ethylmaleimide-sensitive factor (NSF) (Homo sapiens, UniProt P46459); assay: Avidin bead pull-down of NSF with immobilized B-NFC; assay type: binding; details: avidin beads
Chain of N-ethylmaleimide-sensitive factor (NSF) (P46459 whole entry, species assumed): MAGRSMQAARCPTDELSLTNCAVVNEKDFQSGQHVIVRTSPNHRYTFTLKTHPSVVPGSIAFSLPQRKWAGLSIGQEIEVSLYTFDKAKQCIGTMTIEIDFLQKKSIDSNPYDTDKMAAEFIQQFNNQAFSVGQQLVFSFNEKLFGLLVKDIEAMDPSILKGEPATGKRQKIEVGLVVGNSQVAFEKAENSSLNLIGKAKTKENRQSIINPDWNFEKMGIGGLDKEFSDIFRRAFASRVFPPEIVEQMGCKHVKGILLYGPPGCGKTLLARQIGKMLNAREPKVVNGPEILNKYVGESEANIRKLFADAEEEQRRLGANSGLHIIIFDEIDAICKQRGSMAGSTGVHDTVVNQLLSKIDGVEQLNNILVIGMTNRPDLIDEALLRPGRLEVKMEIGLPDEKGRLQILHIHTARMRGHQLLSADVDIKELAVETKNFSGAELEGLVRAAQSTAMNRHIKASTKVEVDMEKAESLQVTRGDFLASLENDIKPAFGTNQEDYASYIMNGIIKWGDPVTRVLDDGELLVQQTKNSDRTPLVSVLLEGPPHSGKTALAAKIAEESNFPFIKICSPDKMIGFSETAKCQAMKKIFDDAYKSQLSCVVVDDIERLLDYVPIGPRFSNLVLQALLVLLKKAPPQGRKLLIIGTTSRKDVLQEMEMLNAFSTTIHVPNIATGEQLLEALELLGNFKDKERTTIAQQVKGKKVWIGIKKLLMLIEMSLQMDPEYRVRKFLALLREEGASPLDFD

Chain of p97 mutants (p97ΔN, p97ΔD2) (P55072 209-458 limits assumed, stated change not applied): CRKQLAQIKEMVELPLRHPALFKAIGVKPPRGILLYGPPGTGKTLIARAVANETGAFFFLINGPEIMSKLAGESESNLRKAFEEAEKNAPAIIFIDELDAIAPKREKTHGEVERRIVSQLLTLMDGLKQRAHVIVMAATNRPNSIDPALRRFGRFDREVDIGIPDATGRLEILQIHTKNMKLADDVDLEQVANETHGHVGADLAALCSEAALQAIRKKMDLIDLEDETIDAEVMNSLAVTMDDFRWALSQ

Compound: 5-nitrofuryl-acrolein
- expression level of ATF3, ATF4 and NOXA (ATF3, ATF4, NOXA; 2.5 μM): comparable to that present after treatment with EERI
- binding of p97 mutants to immobilized compound [1]: also bound
- number of genes up- or down-regulated by at least 2-fold by both EerI and 5-NA (293T cells): 29 genes
- number of genes up- or down-regulated by at least 2-fold only by this compound (293T cells): 306 genes
- cell viability / cytotoxic activity (in words) (JEKO-1 cells [2]): cytotoxic activity at a concentration lower than that shown by EERI

Compound: CC1(C)C(N(O)C(=O)Nc2ccc(C(F)(F)F)cc2)N(c2ccc(Cl)cc2)C(=O)N1CC(=O)N/N=C/C=C/c1ccc([N+](=O)[O-])o1 (stereo not shown) [CBU-003]
- Kd [3]: 5 to 10 µM
- effect on p97 ATPase activity (p97 ATPase): No effect
- expression level of ATF3, ATF4 and NOXA (ATF3, ATF4, NOXA; 10 μM): comparable to that present after treatment with EERI
- location of slow migrating (oligomerized) p97 species induced by compound (membrane associated p97): primarily in the membrane fraction, not in the cytosol fraction
- sensitivity of p97 to limited trypsin digestion (p97 [4]): caused a delay in the proteolysis of two p97 fragments by trypsin
- number of genes up- or down-regulated by at least 2-fold by both EerI and 5-NA (293T cells): 29 genes
- number of genes up- or down-regulated by at least 2-fold only by this compound (293T cells): 25 genes
- stabilization of ERAD substrate TCRα-YFP (TCRα-YFP): stabilize the ERAD substrate TCRα-YFP in polyubiquitinated forms
- stabilization of soluble p97 substrate GFPμ (GFPμ): stabilize the soluble p97 substrate GFPμ in polyubiquitinated forms
- requirement of NOXA for cytotoxicity [5]: Noxa is equally required
- sensitivity of PBMC compared with CLL cells [6]: PBMC are less sensitive
- IC50 (JEKO-1 cells [2]; JEKO-1 cells, incubated 2 days, MTT, four parameter logistic fit): 3.5 µM

Compound: O=C(N/N=C/C=C/c1ccc([N+](=O)[O-])o1)c1cc2ccccc2cc1O [CBU-028, (E)-3-hydroxy-N′-((E)-3-(5-nitrofuran-2-yl)allylidene)-2-naphthohydrazide]
- NOXA protein level (ATF3, ATF4, NOXA; 10 μM, time course): upregulates NOXA protein level
- expression of ER stress markers ATF3 and ATF4 (ATF3, ATF4, NOXA; 10 μM, time course): induces expression of the ER stress markers ATF3 and ATF4
- polyubiquitinated proteins (ATF3, ATF4, NOXA; 10 μM, time course): causes accumulation of polyubiquitinated proteins
- ubiquitinated histone H2A (ATF3, ATF4, NOXA; 10 μM, time course): downregulates ubiquitinated histone H2A
- stabilization of ERAD substrate TCRα-YFP (TCRα-YFP): stabilize the ERAD substrate TCRα-YFP in polyubiquitinated forms
- stabilization of soluble p97 substrate GFPμ (GFPμ): stabilize the soluble p97 substrate GFPμ in polyubiquitinated forms
- requirement of NOXA for cytotoxicity [5]: Noxa is equally required
- sensitivity of PBMC compared with CLL cells [6]: PBMC are less sensitive
- synergy with bortezomib (CLL cells): Synergizes with Bortezomib
- IC50 (JEKO-1 cells [7]): 3 µM

Compound: O=C(CCCC[C@@H]1SCC2NC(=O)NC21)N/N=C/C=C/c1ccc([N+](=O)[O-])o1 (stereo partly drawn) [CBU-032, (E)-N′-((E)-3-(5-nitrofuran-2-yl)allylidene)-5-((4S)-2-oxohexahydro-1H-thieno[3,4-d]imidazol-4-yl)pentanehydrazide]
- precipitation of p97 by immobilized compound (p97 [8]): consistently precipitated more p97, than biotin
- binding of Hsp70 to immobilized compound (heat shock protein Hsp70): neither the heat shock protein Hsp70, nor the homologous AAA ATPase, N-ethylmaleimide-sensitive factor (NSF), showed significant binding
- binding of NSF to immobilized compound [9]: neither the heat shock protein Hsp70, nor the homologous AAA ATPase, N-ethylmaleimide-sensitive factor (NSF), showed significant binding
- IC50 (JEKO-1 cells [7]): 25 µM
